In patent US8513232B2, “Substituted spirocyclic piperidine derivatives as histamine-3 (H3) receptor ligands” (Cephalon, Inc., priority 2008, dated 2013):
Where two headings read alike, the source gives them in different places.

Tests used:
[1] = molecular target: T1, rat histamine H3 receptor (Rattus norvegicus, UniProt Q9QYN8); test: Rat H3 radioligand binding ([3H]-N-alpha-methylhistamine, SPA)
T1 construct: encoding the entire 445-amino-acid rat histamine H3 receptor; expressed in transfected cells; membrane preparation
T1 sequence (Q9QYN8 whole entry): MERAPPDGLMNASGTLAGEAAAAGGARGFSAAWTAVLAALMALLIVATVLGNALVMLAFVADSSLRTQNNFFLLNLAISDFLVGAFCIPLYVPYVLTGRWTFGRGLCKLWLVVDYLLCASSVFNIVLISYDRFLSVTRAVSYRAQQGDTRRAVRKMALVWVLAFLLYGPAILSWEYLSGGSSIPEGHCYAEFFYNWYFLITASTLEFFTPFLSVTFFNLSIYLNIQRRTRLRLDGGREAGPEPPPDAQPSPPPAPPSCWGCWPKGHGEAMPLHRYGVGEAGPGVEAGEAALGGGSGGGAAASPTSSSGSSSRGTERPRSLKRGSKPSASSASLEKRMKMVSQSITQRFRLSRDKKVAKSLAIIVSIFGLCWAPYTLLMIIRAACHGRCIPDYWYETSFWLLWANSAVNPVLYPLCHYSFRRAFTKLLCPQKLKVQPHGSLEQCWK
Source text: Cell line development and membrane preparation. The rat H3 receptor cDNA was PCR amplified from reverse-transcribed RNA pooled from rat thalamus, hypothalamus, striatum and prefrontal cortex with a sequence corresponding to by #338-1672 of Genbank file #NM_053506, encoding the entire 445-amino-acid rat histamine H3 receptor. This was engineered into the pIRES-neo3 mammalian expression vector, which was stably transfected into the CHO-A3 cell line (Euroscreen, Belgium), followed by clonal selection by limiting dilution. Cells were harvested and cell pellets were frozen (−80° C.). Cell pellets were resuspended in 5 mM Tris-HCl, pH 7.5 with […] and a cocktail of protease inhibitors (Complete Protease Inhibitior Tablets, Roche Diagnostics). Cells were disrupted using a polytron cell homogenizer and the suspension was centrifuged at 1000×g for 10 minutes at 4° C. The pellet was discarded and the supernatant centrifuged at 40,000×g for 30 min at 4° C. This membrane pellet was washed in membrane buffer containing 50 mM Tris-HCl, pH 7.5 with 0.6 mM EDTA, 5 mM MgCl2 and protease inhibitors, recentrifuged as above and the final pellet resuspended in membrane buffer plus 250 mM sucrose and frozen at −80° C.
(§1) Radioligand Binding. Membranes were resuspended in 50 mM Tris HCl (pH 7.4), 5 mM MgCl2, 0.1% BSA. The membrane suspensions (10 μg protein per well) were incubated in a 96 well microtiter plate with [^3H]-N-alpha-methylhistamine (approximately 1 nM final concentration), test compounds at various concentrations (0.01 nM-30 μM) and scintillation proximity beads (Perkin Elmer, FlashBlueGPCR Scintillating Beads) in a final volume of 80 μl for 4 hours at room temperature, protected from light. Non-specific binding was determined in the presence of 10 μM clobenpropit. Radioligand bound to receptor, and therefore in proximity to the scintillation beads, was measured using a MicroBeta scintillation counter.

human H3 receptor = molecular target: T2, human H3 receptor (Homo sapiens, UniProt Q9Y5N1); test: Human H3 radioligand binding ([3H]-N-alpha-methylhistamine, SPA)
T2 construct: expressed in transfected cells
T2 sequence (Q9Y5N1 whole entry): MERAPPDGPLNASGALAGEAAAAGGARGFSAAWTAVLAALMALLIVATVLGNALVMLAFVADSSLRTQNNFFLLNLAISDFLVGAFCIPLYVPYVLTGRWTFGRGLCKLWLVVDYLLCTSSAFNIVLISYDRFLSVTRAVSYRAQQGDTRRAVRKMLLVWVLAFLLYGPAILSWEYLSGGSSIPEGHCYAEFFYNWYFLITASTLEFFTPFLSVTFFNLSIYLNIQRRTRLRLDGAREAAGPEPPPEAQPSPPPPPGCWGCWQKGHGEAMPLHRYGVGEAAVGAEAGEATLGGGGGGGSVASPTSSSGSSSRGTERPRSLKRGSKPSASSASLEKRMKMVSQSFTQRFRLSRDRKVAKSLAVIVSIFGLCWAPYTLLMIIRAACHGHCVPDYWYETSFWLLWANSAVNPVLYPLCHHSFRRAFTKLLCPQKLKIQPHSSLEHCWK
Procedure: Methods: CHO cells stably expressing the human H3 receptor (GenBank: NM_007232) were harvested and cell pellets were frozen (−80° C.). Cell pellets were resuspended in 5 mM Tris-HCl, pH 7.5 with […] and a cocktail of protease inhibitors (Complete Protease Inhibitior Tablets, Roche Diagnostics). Cells were disrupted using a polytron cell homogenizer and the suspension was centrifuged at 1000×g for 10 minutes at 4° C. The pellet was discarded and the supernatant centrifuged at 40,000×g for 30 min at 4° C. This membrane pellet was washed in membrane buffer containing 50 mM Tris-HCl, pH 7.5 with 0.6 mM EDTA, 5 mM MgCl2 and protease inhibitors, recentrifuged as above and the final pellet resuspended in membrane buffer plus 250 mM sucrose and frozen at −80° C.
as §1

[2] = Table A, rat H3 binding, read-out: Rat Ki
[3] = Table A, human H3 binding, read-out: Human Ki
[4] = Table C, rat H3 binding, read-out: Rat H3 Ki
[5] = Table C, human H3 binding, read-out: Human H3 Ki
[6] = Rat H3 binding, Table B, Examples 136-362, read-out: rat H3 binding Ki
[7] = Human H3 binding, Table B, Examples 136-362, read-out: hum H3 binding Ki
[8] = rat H3 binding, Table D, read-out: Rat H3 Ki
[9] = human H3 binding, Table D, read-out: Human H3 Ki

SMILES	Ki [1, 2]	Ki (human H3 receptor; [3])	other results
O=C(c1cccc(-c2ccc3c(c2)COC2(CCN(C4CCC4)CC2)O3)c1)N1CCCCC1 [Example 53]	< 200 nM	< 200 nM	
c1cn2c(n1)CN(c1ccc3c(c1)CCC1(CCN(C4CCC4)CC1)O3)CC2 [Example 428]			Ki [1, 4]: < 200 nM; Ki (human H3 receptor; [5]): < 200 nM
Cc1cc(-c2ccc3c(c2)CCC2(CCN(C4CCC4)CC2)O3)ccc1C(=O)O [Example 327]			Ki [1, 6]: 200 to 1000 nM; Ki (human H3 receptor; [7]): < 200 nM
c1cnc(COc2ccc3c(c2)CCC2(CCN(C4CCC4)CC2)O3)nc1 [Example 317]			Ki [1, 6]: < 200 nM; Ki (human H3 receptor; [7]): < 200 nM
COc1ncc(-c2ccc3c(c2)CCC2(CCN(C4CCC4)CC2)O3)cn1 [Example 104]	< 200 nM	< 200 nM	
CNC(=O)c1ccc(-c2ccc3c(c2)CCC2(CCN(C4CCC4)CC2)O3)cc1F [Example 115]	< 200 nM	< 200 nM	
c1cc2c(cc1OCC1CCCO1)CCC1(CCN(C3CCC3)C1)O2 (centres unmarked) [Example 445]			Ki ([1]; read-out: Rat H3 kI): 200 to 1000 nM; Ki (human H3 receptor; read-out: Human H3 Ki): 200 to 1000 nM
c1ccc(-c2ccc3c(c2)CCC2(CCN(C4CCC4)CC2)O3)cc1 [Example 102]	< 200 nM	< 200 nM	
N#Cc1ccc(-c2ccc3c(c2)CCC2(CCN(C4CCC4)CC2)O3)cc1 [Example 110]	< 200 nM	< 200 nM	
c1ncc(-c2ccc3c(c2)CCC2(CCN(C4CCC4)CC2)O3)cn1 [Example 107]	< 200 nM	< 200 nM	
Nc1cccc(-c2ccc3c(c2)COC2(CCN(C4CCCC4)CC2)O3)c1 [Example 61]		< 200 nM	
O=C(O)c1c(F)cc(-c2ccc3c(c2)CCC2(CCN(C4CCC4)CC2)O3)cc1F [Example 318]			Ki [1, 6]: < 200 nM; Ki (human H3 receptor; [7]): < 200 nM
c1ccc(Oc2ccc3c(c2)COC2(CCN(C4CCC4)CC2)O3)cc1 [Example 131]	< 200 nM	200 to 1000 nM	
CC(C)N1CCC2(CC1)OCc1cc(-c3ccc4c(c3)CCO4)ccc1O2 [Example 64]		< 200 nM	
O=S(=O)(c1ccc(-c2ccc3c(c2)COC2(CCN(C4CCC4)CC2)O3)c(F)c1)N1CCOCC1 [Example 65]	< 200 nM	< 200 nM	
O=C(Nc1ccc2c(c1)COC1(CCN(C3CCC3)CC1)O2)Nc1ccccc1Cl [Example 185]			Ki [1, 6]: < 200 nM; Ki (human H3 receptor; [7]): < 200 nM
c1cc2c(cc1OCC1CCCO1)CCC1(CCN(C3CCC3)CC1)O2 (centres unmarked) [Example 449]			Ki ([1]; read-out: Rat H3 kI): < 200 nM; Ki (human H3 receptor; read-out: Human H3 Ki): < 200 nM
CS(=O)(=O)c1ccc(-c2ccc3c(c2)CCC2(CCN(C4CCC4)CC2)O3)cc1 [Example 101]	< 200 nM	< 200 nM	
NC(=O)Cc1ccc(-c2ccc3c(c2)COC2(CCN(C4CCC4)CC2)O3)cc1 [Example 49]	< 200 nM	< 200 nM	

SMILES	Ki [1, 2]	Ki (human H3 receptor; [3])	other results
CCS(=O)(=O)c1cc(-c2ccc3c(c2)COC2(CCN(C4CCC4)CC2)O3)c[nH]c1=O [Example 807]			Ki [1, 8]: < 200 nM; Ki (human H3 receptor; [9]): < 200 nM
CCOc1ccc(-c2ccc3c(c2)CCC2(CCN(C4CCC4)CC2)O3)cn1 [Example 100]	< 200 nM	< 200 nM	
Nc1cccc(-c2ccc3c(c2)COC2(CCN(C4CCC4)CC2)O3)c1 [Example 51]	< 200 nM	< 200 nM	
COc1ncc(-c2ccc3c(c2)COC2(CCN(C4CCC4)CC2)O3)cn1 [Example 23]	< 200 nM	< 200 nM	
COCCN(C)C(=O)c1ccc(-c2ccc3c(c2)COC2(CCN(C4CCC4)CC2)O3)cc1F [Example 300]			Ki [1, 6]: < 200 nM; Ki (human H3 receptor; [7]): < 200 nM
N#Cc1ncc(-c2ccc3c(c2)COC2(CCN(C4CCC4)CC2)O3)s1 [Example 75]	< 200 nM	< 200 nM	
c1cc2c(cc1-c1cn[nH]c1)CCC1(CCN(C3CCC3)CC1)O2 [Example 114]	< 200 nM	< 200 nM	
O=S(=O)(c1ccc(-c2ccc3c(c2)CCC2(CCN(C4CCC4)CC2)O3)cc1)N1CCCC1 [Example 103]	< 200 nM	< 200 nM	
O=C(c1ccc(-c2ccc3c(c2)CCC2(CCN(C4CCC4)CC2)O3)cn1)N1CC[C@H](O)C1 [Example 213]			Ki [1, 6]: < 200 nM; Ki (human H3 receptor; [7]): < 200 nM
O=C(NC1CC1)c1ccc(-c2ccc3c(c2)COC2(CCN(C4CCC4)CC2)O3)cc1 [Example 14]	< 200 nM	< 200 nM	
Cc1nc(C)c(-c2ccc3c(c2)COC2(CCN(C4CCC4)CC2)O3)s1 [Example 70]	< 200 nM	< 200 nM	
c1csc(-c2ccc3c(c2)COC2(CCN(C4CCC4)CC2)O3)c1 [Example 12]	< 200 nM	< 200 nM	
O=C(NC1CC1)c1cccc(-c2ccc3c(c2)COC2(CCN(C4CCC4)CC2)O3)c1 [Example 55]	< 200 nM	< 200 nM	
O=C(c1ccc(-c2ccc3c(c2)CCC2(CCN(C4CCC4)CC2)O3)cc1)N1CCOCC1 [Example 99]	< 200 nM	< 200 nM	
O=C(c1cccc(-c2ccc3c(c2)OC2(CCN(C4CCC4)CC2)O3)c1)N1CCOCC1 [Example 91]	< 200 nM	< 200 nM	
c1cc2c(cc1OC1CCSC1)CCC1(CCN(C3CCC3)CC1)O2 (centres unmarked) [Example 484]			Ki ([1]; read-out: Rat H3 kI): < 200 nM; Ki (human H3 receptor; read-out: Human H3 Ki): < 200 nM
c1ccc2oc(-c3ccc4c(c3)COC3(CCN(C5CCC5)CC3)O4)cc2c1 [Example 6]		200 to 1000 nM	
O=C(Nc1cccc(-c2ccc3c(c2)COC2(CCN(C4CCCC4)CC2)O3)c1)c1ccccc1 [Example 62]		< 200 nM	
COC(c1ccncc1)c1ccc2c(c1)COC1(CCN(C3CCC3)CC1)O2 (centres unmarked) [Example 724]			Ki [1, 8]: < 200 nM; Ki (human H3 receptor; [9]): < 200 nM

SMILES	Ki [1, 2]	Ki (human H3 receptor; [3])	other results
CN(C)S(=O)(=O)c1ccc(-c2ccc3c(c2)COC2(CCN(C4CCC4)CC2)O3)cc1 [Example 32]	< 200 nM	< 200 nM	
N#Cc1ccccc1-c1ccc2c(c1)COC1(CCN(C3CCC3)CC1)O2 [Example 73]	< 200 nM	< 200 nM	
c1cc2c(cc1OC1CCNCC1)CCC1(CCN(C3CCC3)CC1)O2 [Example 425]			Ki [1, 4]: < 200 nM; Ki (human H3 receptor; [5]): < 200 nM
CC(C)CN1CC(c2ccc3c(c2)COC2(CCN(C4CCC4)CC2)O3)CCC1=O (centres unmarked) [Example 564]			Ki ([1]; read-out: Rat H3 kI): < 200 nM; Ki (human H3 receptor; read-out: Human H3 Ki): < 200 nM
CCS(=O)(=O)c1ccc(-c2ccc3c(c2)COC2(CCN(C4CCC4)CC2)O3)cc1 [Example 20]	< 200 nM	< 200 nM	
FC(F)(F)Oc1ccc(-c2ccc3c(c2)CCC2(CCN(C4CCC4)CC2)O3)cc1 [Example 105]	200 to 1000 nM	< 200 nM	
O=C(c1cccc(-c2ccc3c(c2)COC2(CCN(C4CCC4)CC2)O3)c1)N1CCOCC1 [Example 56]	< 200 nM	< 200 nM	
O=C(O)c1c(F)cc(-c2ccc3c(c2)COC2(CCN(C4CCC4)CC2)O3)cc1F [Example 334]			Ki ([1]; Rat H3 binding, Table B, given as numeric bound instead of class symbol, read-out: rat H3 binding Ki): > 300 nM; Ki (human H3 receptor; [7]): 200 to 1000 nM
COC1(c2ccc3c(c2)COC2(CCN(C4CCC4)CC2)O3)CC(C(=O)N2CCCC2)C1 (centres unmarked) [Example 540]			Ki ([1]; read-out: Rat H3 kI): < 200 nM; Ki (human H3 receptor; read-out: Human H3 Ki): < 200 nM
COc1ccc(CCc2ccc3c(c2)COC2(CCN(C4CCC4)CC2)O3)cn1 [Example 522]			Ki ([1]; read-out: Rat H3 kI): < 200 nM; Ki (human H3 receptor; read-out: Human H3 Ki): < 200 nM
Fc1ccc(-c2ccc3c(c2)COC2(CCN(C4CCC4)CC2)O3)cn1 [Example 1]	< 200 nM	< 200 nM	
COCc1cc(=O)n(C)cc1-c1ccc2c(c1)COC1(CCN(C3CCC3)CC1)O2 [Example 790]			Ki [1, 8]: < 200 nM; Ki (human H3 receptor; [9]): < 200 nM
O=S(=O)(c1ccc(-c2ccc3c(c2)COC2(CCN(C4CCC4)CC2)O3)cc1)N1CCCC1 [Example 16]	< 200 nM	< 200 nM	
NC(=O)Nc1cccc(-c2ccc3c(c2)COC2(CCN(C4CCC4)CC2)O3)c1 [Example 52]	< 200 nM	< 200 nM	
Cc1c(-c2ccc(=O)n(C)c2)ccc2c1COC1(CCN(C3CCC3)CC1)O2 [Example 557]			Ki ([1]; read-out: Rat H3 kI): < 200 nM; Ki (human H3 receptor; read-out: Human H3 Ki): < 200 nM
c1ncc(Cc2ccc3c(c2)COC2(CCN(C4CCC4)CC2)O3)s1 [Example 690]			Ki [1, 8]: < 200 nM; Ki (human H3 receptor; [9]): < 200 nM
CC(C)(C)OC(=O)n1cccc1-c1ccc2c(c1)COC1(CCN(C3CCC3)CC1)O2 [Example 706]			Ki [1, 8]: < 200 nM; Ki (human H3 receptor; [9]): < 200 nM
CC(C)N1CCC2(CC1)OCc1cc(-c3cccc(N)c3)ccc1O2 [Example 63]		< 200 nM	
